Laboratory results reported in article PMC5547389, “Structure-activity relationships and molecular docking studies of chromene and chromene based azo chromophores: A novel series of potent antimicrobial and anticancer agents” (EXCLI Journal, 2017).
Values after ≈ are worked out from the molar mass of the structure shown.

What follows are compounds tested on Aspergillus fumigatus (RCMB 02568) (assay: Well diffusion assay (inhibition zone)). Conditions: RCMB02568, 5 mg/mL in DMSO, fungi, read-out: Inhibition Zone (IZ) diameter, A.F.
Assay type: cell-based
Outline: (§1)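 Agar well diffusion with 10 mm wells, nutrient agar for bacteria and malt extract agar for fungi. Plates were incubated 24-48 h at 37 °C for bacteria or 28 °C for fungi. Inhibition zone diameters were measured in mm, in triplicate.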

First: N#CC1=C(N)Oc2c(N)cc3ccccc3c2C1c1ccc(Cl)cc1 (stereo not drawn) [4b, 3,5-diamino-1-(4-chlorophenyl)-1H-benzo[f]chromene-2-carbonitrile]
Second: Cc1ccc(C2C(C#N)=C(N)Oc3c(N)cc4ccccc4c32)cc1 (stereo not drawn) [4c, 3,5-diamino-1-(p-tolyl)-1H-benzo[f]chromene-2-carbonitrile]
The zone of inhibition at 5000 µg/mL of the first is higher: 24.3 mm for the first, 20.2 mm for the second.

For `N#CC1=C(N)Oc2c(ccc3c(N)cccc23)C1c1ccc(F)cc1` (stereo not drawn) [7c], the zone of inhibition at 5000 µg/mL was 18.2 mm.

What follows are compounds tested on Bacillus subtilis (RCMB 010067) (assay: Well diffusion assay (inhibition zone)). Conditions: RCMB010067, 5 mg/mL in DMSO, Gm+ve, read-out: Inhibition Zone (IZ) diameter, B.S.
Assay type: cell-based
Outline: as §1

First: N#CC1=C(N)Oc2c(N)cc3ccccc3c2C1c1ccc(Cl)cc1 (stereo not drawn) [4b, 3,5-diamino-1-(4-chlorophenyl)-1H-benzo[f]chromene-2-carbonitrile]
Second: Cc1ccc(C2C(C#N)=C(N)Oc3c(N)cc4ccccc4c32)cc1 (stereo not drawn) [4c, 3,5-diamino-1-(p-tolyl)-1H-benzo[f]chromene-2-carbonitrile]
The zone of inhibition at 5000 µg/mL of the first is higher: 33.7 mm for the first, 19.4 mm for the second.

`N#CC1=C(N)Oc2c(ccc3c(N)cccc23)C1c1ccc(F)cc1` (stereo not drawn) [7c] gave a zone of inhibition at 5000 µg/mL of 21.3 mm.

These compounds were tested on Escherichia coli (RCMB 010052) (assay: Well diffusion assay (inhibition zone)). Conditions: RCMB010052, 5 mg/mL in DMSO, Gm-ve, read-out: Inhibition Zone (IZ) diameter, E.C.
Assay type: cell-based
Outline: as §1

First: N#CC1=C(N)Oc2c(N)cc3ccccc3c2C1c1ccc(Cl)cc1 (stereo not drawn) [4b, 3,5-diamino-1-(4-chlorophenyl)-1H-benzo[f]chromene-2-carbonitrile]
Second: Cc1ccc(C2C(C#N)=C(N)Oc3c(N)cc4ccccc4c32)cc1 (stereo not drawn) [4c, 3,5-diamino-1-(p-tolyl)-1H-benzo[f]chromene-2-carbonitrile]
The zone of inhibition at 5000 µg/mL of the first is higher: 18.3 mm for the first, 15.3 mm for the second.

With `N#CC1=C(N)Oc2c(ccc3c(N)cccc23)C1c1ccc(F)cc1` (stereo not drawn) [7c] the zone of inhibition at 5000 µg/mL was 18.6 mm.

Each compound was assayed on Geotricum candidum (RCMB 05097) (assay: Well diffusion assay (inhibition zone)). Conditions: 5 mg/mL in DMSO; fungi; read-out: Inhibition Zone (IZ) diameter, G.C.
Assay type: cell-based
Outline: as §1

First: N#CC1=C(N)Oc2c(N)cc3ccccc3c2C1c1ccc(Cl)cc1 (stereo not drawn) [4b, 3,5-diamino-1-(4-chlorophenyl)-1H-benzo[f]chromene-2-carbonitrile]
Second: Cc1ccc(C2C(C#N)=C(N)Oc3c(N)cc4ccccc4c32)cc1 (stereo not drawn) [4c, 3,5-diamino-1-(p-tolyl)-1H-benzo[f]chromene-2-carbonitrile]
The zone of inhibition at 5000 µg/mL of the first is higher: 26.9 mm for the first, 18.6 mm for the second.

With `N#CC1=C(N)Oc2c(ccc3c(N)cccc23)C1c1ccc(F)cc1` (stereo not drawn) [7c] the zone of inhibition at 5000 µg/mL was 20.1 mm.

Each compound was assayed on Streptococcus pneumoniae (RCMB 010010) (assay: Well diffusion assay (inhibition zone)). Conditions: RCMB010010, 5 mg/mL in DMSO, Gm+ve, read-out: Inhibition Zone (IZ) diameter, S.P.
Assay type: cell-based
Outline: as §1

Going from `N#CC1=C(N)Oc2c(N)cc3ccccc3c2C1c1ccc(Cl)cc1` (stereo not drawn) [4b, 3,5-diamino-1-(4-chlorophenyl)-1H-benzo[f]chromene-2-carbonitrile] to `Cc1ccc(C2C(C#N)=C(N)Oc3c(N)cc4ccccc4c32)cc1` (stereo not drawn) [4c, 3,5-diamino-1-(p-tolyl)-1H-benzo[f]chromene-2-carbonitrile], the zone of inhibition at 5000 µg/mL falls from 22.6 mm to 18.2 mm.

With `N#CC1=C(N)Oc2c(ccc3c(N)cccc23)C1c1ccc(F)cc1` (stereo not drawn) [7c] the zone of inhibition at 5000 µg/mL was 17.8 mm.

These compounds were tested on Syncephalastrum racemosum (RCMB 05922) (assay: Well diffusion assay (inhibition zone)). Conditions: RCMB05922, 5 mg/mL in DMSO, fungi, read-out: Inhibition Zone (IZ) diameter, S.R.
Assay type: cell-based
Outline: as §1

First: N#CC1=C(N)Oc2c(N)cc3ccccc3c2C1c1ccc(Cl)cc1 (stereo not drawn) [4b, 3,5-diamino-1-(4-chlorophenyl)-1H-benzo[f]chromene-2-carbonitrile]
Second: Cc1ccc(C2C(C#N)=C(N)Oc3c(N)cc4ccccc4c32)cc1 (stereo not drawn) [4c, 3,5-diamino-1-(p-tolyl)-1H-benzo[f]chromene-2-carbonitrile]
The zone of inhibition at 5000 µg/mL of the first is higher: 17.6 mm for the first, 16.9 mm for the second.

`N#CC1=C(N)Oc2c(ccc3c(N)cccc23)C1c1ccc(F)cc1` (stereo not drawn) [7c] showed a zone of inhibition at 5000 µg/mL of 16.2 mm.

The compounds below were run on Escherichia coli (RCMB 010052) (assay: MIC by serial dilution method). Conditions: RCMB010052, Gm-ve, read-out: Minimum inhibitory concentration, MIC, E.C.
Assay type: cell-based
Protocol: (§2) All the newly synthesized compounds described in this report were screened for both antibacterial and antifungal activity via the reported agar diffusion well method (Vanden Berghe and Vlietinck, 1991[62]). The inhibition zones and minimum inhibitory concentrations (MIC) were determined by the serial dilution method (Cappuccino and Sherman, 1999[12]). The antimicrobial activity of the synthesized compounds was tested against a broad panel of microorganisms including two Gram-positive bacteria: Streptococcus pneumoniae (RCMB 010010) and Bacillus subtilis (RCMB 010067), two Gram-negative bacteria: Pseudomonas aeruginosa (RCMB 010043) and Escherichia coli (RCMB 010052), and four fungi: Aspergillus fumigatus (RCMB 02568), Syncephalastrum racemosum (RCMB 05922), Geotricum candidum (RCMB 05097), and Candida albicans (RCMB 05036). Ampicillin, ciprofloxacin, gentamicin and amphotericin B were used as positive control drugs (Atta-ur-Rahman and Thomsen, 2001[7]; Smania et al., 1999[57]). […] While in the case of Gm-ve bacteria, they had weak activity. In addition, certain strains of fungi were sensitive to tested compounds with an IZ range from 12-25 except Candida albicans.

Going from `N#CC1=C(N)Oc2c(N)cc3ccccc3c2C1c1ccc(Cl)cc1` (stereo not drawn) [4b, 3,5-diamino-1-(4-chlorophenyl)-1H-benzo[f]chromene-2-carbonitrile] to `Cc1ccc(C2C(C#N)=C(N)Oc3c(N)cc4ccccc4c32)cc1` (stereo not drawn) [4c, 3,5-diamino-1-(p-tolyl)-1H-benzo[f]chromene-2-carbonitrile], the MIC rises from 15.6 µg/mL (≈ 44.9 µM) to 62.5 µg/mL (≈ 191 µM) (4-fold).

What follows are compounds tested on Geotricum candidum (RCMB 05097) (assay: MIC by serial dilution method). Conditions: fungi; read-out: Minimum inhibitory concentration, MIC, G.C.
Assay type: cell-based
Protocol: as §2

Compared with `N#CC1=C(N)Oc2c(N)cc3ccccc3c2C1c1ccc(Cl)cc1` (stereo not drawn) [4b, 3,5-diamino-1-(4-chlorophenyl)-1H-benzo[f]chromene-2-carbonitrile], `Cc1ccc(C2C(C#N)=C(N)Oc3c(N)cc4ccccc4c32)cc1` (stereo not drawn) [4c, 3,5-diamino-1-(p-tolyl)-1H-benzo[f]chromene-2-carbonitrile] is 260-fold higher in MIC: 0.03 µg/mL (≈ 0.0863 µM) for the first, 7.81 µg/mL (≈ 23.9 µM) for the second.

These compounds were tested on Syncephalastrum racemosum (RCMB 05922) (assay: MIC by serial dilution method). Conditions: RCMB05922, fungi, read-out: Minimum inhibitory concentration, MIC, S.R.
Assay type: cell-based
Protocol: as §2

`N#CC1=C(N)Oc2c(N)cc3ccccc3c2C1c1ccc(Cl)cc1` (stereo not drawn) [4b, 3,5-diamino-1-(4-chlorophenyl)-1H-benzo[f]chromene-2-carbonitrile] and `Cc1ccc(C2C(C#N)=C(N)Oc3c(N)cc4ccccc4c32)cc1` (stereo not drawn) [4c, 3,5-diamino-1-(p-tolyl)-1H-benzo[f]chromene-2-carbonitrile] are the same in MIC: 31.2 µg/mL (≈ 89.8 µM) for the first, 31.2 µg/mL (≈ 95.5 µM) for the second.

The compounds below were run on Human colon carcinoma (HCT-116) (assay: Cytotoxic screening). Conditions: Homo sapiens, HCT-116; read-out: IC50 HCT-116.
Assay type: cell-based
Outline: (§3)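 Read-out is crystal violet staining (the text also names MTT), lysis in 33 % acetic acid, A590, with untreated cells as 100 %. IC50 was estimated graphically from survival curves.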

`N#CC1=C(N)Oc2c(N)cc3ccccc3c2C1c1ccc(Cl)cc1` (stereo not drawn) [4b, 3,5-diamino-1-(4-chlorophenyl)-1H-benzo[f]chromene-2-carbonitrile] and `Cc1ccc(C2C(C#N)=C(N)Oc3c(N)cc4ccccc4c32)cc1` (stereo not drawn) [4c, 3,5-diamino-1-(p-tolyl)-1H-benzo[f]chromene-2-carbonitrile] are the same in IC50: 1.1 µg/mL (≈ 3.16 µM) for the first, 1.1 µg/mL (≈ 3.36 µM) for the second.

Work on `N#CC1=C(N)Oc2c(ccc3c(N)cccc23)C1c1ccc(F)cc1` (stereo not drawn) [7c] yielded an IC50 of 2 µg/mL (≈ 6.04 µM).

What follows are compounds tested on human breast adenocarcinoma (MCF-7) (assay: Cytotoxic screening). Conditions: Homo sapiens, MCF7; read-out: IC50 MCF-7.
Assay type: cell-based
Outline: as §3

`N#CC1=C(N)Oc2c(N)cc3ccccc3c2C1c1ccc(Cl)cc1` (stereo not drawn) [4b, 3,5-diamino-1-(4-chlorophenyl)-1H-benzo[f]chromene-2-carbonitrile] and `Cc1ccc(C2C(C#N)=C(N)Oc3c(N)cc4ccccc4c32)cc1` (stereo not drawn) [4c, 3,5-diamino-1-(p-tolyl)-1H-benzo[f]chromene-2-carbonitrile] are within 1.5-fold of each other in IC50: 1 µg/mL (≈ 2.88 µM) for the first, 0.8 µg/mL (≈ 2.44 µM) for the second.

`N#CC1=C(N)Oc2c(ccc3c(N)cccc23)C1c1ccc(F)cc1` (stereo not drawn) [7c] was tested, and the IC50 was 1.4 µg/mL (≈ 4.23 µM).

Each compound was assayed on human hepatocellular carcinoma (HEPG-2) (assay: Cytotoxic screening). Conditions: HepG2, read-out: IC50 HepG-2.
Assay type: cell-based
Outline: as §3

Going from `N#CC1=C(N)Oc2c(N)cc3ccccc3c2C1c1ccc(Cl)cc1` (stereo not drawn) [4b, 3,5-diamino-1-(4-chlorophenyl)-1H-benzo[f]chromene-2-carbonitrile] to `Cc1ccc(C2C(C#N)=C(N)Oc3c(N)cc4ccccc4c32)cc1` (stereo not drawn) [4c, 3,5-diamino-1-(p-tolyl)-1H-benzo[f]chromene-2-carbonitrile], the IC50 falls from 1 µg/mL (≈ 2.88 µM) to 0.3 µg/mL (≈ 0.916 µM) (3.3-fold).

`N#CC1=C(N)Oc2c(ccc3c(N)cccc23)C1c1ccc(F)cc1` (stereo not drawn) [7c] gave an IC50 of 0.7 µg/mL (≈ 2.11 µM).

The compounds below were run on HCT-116, MCF-7, HEPG-2 (assay: Cytotoxic screening, statements over the three cell lines). Conditions: Homo sapiens; HCT-116, MCF-7, HEPG-2 together; read-out: IC50, range over the three cell lines.
Assay type: cell-based
Protocol: Human colon carcinoma (HCT-116), human hepatocellular carcinoma (HEPG-2), adenocarcinomic human alveolar basal epithelial cell (A-549), and human breast adenocarcinoma (MCF-7) cell lines were obtained from the American Type Culture Collection (ATCC, Rockville, MD). The cells were grown on RPMI-1640 medium supplemented with 10 % inactivated fetal calf serum and 50 µg/ml gentamycin. The cells were maintained at 37 °C in a humidified atmosphere with 5 % CO2 and were subcultured two to three times a week. Potential cytotoxicity of the compounds was evaluated on tumor cells using the method of Gangadevi and Muthumary (2007[21]) (Klancnik et al., 2010[36]). The cells were grown as monolayers in growth RPMI-1640. The monolayers of 104 cells adhered at the bottom of the wells in a 96-well microtiter plate incubated for 24 h at 37 °C in a humidified incubator with 5 % CO2. The monolayers were then washed with sterile phosphate buffered saline (0.01 M pH 7.2) and simultaneously the cells were treated with 100 µL from different dilutions of tested sample in fresh maintenance medium and incubated at 37 °C. A control of untreated cells was made in the absence of tested sample. Positive controls containing doxorubicin were also tested as a reference drug for comparison. Six wells were used for each concentration of the test sample. Every 24 hours an observation under the inverted microscope was made. The number of the surviving cells was determined by staining the cells with crystal violet (Mosmann, 1983[42]; Gangadevi and Muthumary, 2007[21]) followed by cell lysing using 33 % glacial acetic acid and reading the absorbance at 590 nm using microplate reader (SunRise, TECAN, Inc, USA) after well mixing. The absorbance values from untreated cells were considered as 100 % proliferation. The number of viable cells was determined using microplate reader as previously mentioned before and the percentage of […] was calculated as [1-(ODt/ODc)] x 100 % where ODt is the mean optical density of wells treated with the tested sample and ODc is the mean optical density of untreated cells. The relation between surviving cells and drug concentration was plotted to get the survival curve of each tumor cell line after treatment with the specified compound. The 50 % inhibitory concentration (IC50), the concentration required to cause toxic effects in 50 % of intact cells, was estimated from graphic plots.
The in vitro cytotoxic activity was performed by MTT assay (Mosmann, 1983[42]; Alley et al., 1988[6]) against three human carcinoma cell lines: Human colon carcinoma (HCT-116), human breast adenocarcinoma (MCF-7), and human hepatocellular carcinoma (HEPG-2).

`N#CC1=C(N)Oc2c(N)cc3ccccc3c2C1c1ccc(Cl)cc1` (stereo not drawn) [4b, 3,5-diamino-1-(4-chlorophenyl)-1H-benzo[f]chromene-2-carbonitrile] and `Cc1ccc(C2C(C#N)=C(N)Oc3c(N)cc4ccccc4c32)cc1` (stereo not drawn) [4c, 3,5-diamino-1-(p-tolyl)-1H-benzo[f]chromene-2-carbonitrile] fall in the same range of IC50: 0.3 to 2 µg/mL (≈ 0.863 to 5.75 µM) for the first, 0.3 to 2 µg/mL (≈ 0.916 to 6.11 µM) for the second.

`N#CC1=C(N)Oc2c(ccc3c(N)cccc23)C1c1ccc(F)cc1` (stereo not drawn) [7c] was tested, and the IC50 was 0.3 to 2 µg/mL (≈ 0.905 to 6.04 µM).
